Assay type in all cases: in vivo, mouse
For one assay, the system named is leptin. In words: Experiment 2: high-fat diet with first compounds, plasma leptin ELISA. The conditions noted are these: for Plasma Leptin, Females / Plasma Leptin, Males: high-fat diet 9 weeks, untreated = 100%, lysine 6.45%, OBS 4.3%, SPC 4.3% of food; for Plasma Leptin, Males: male mice. Here is the method:
(§1) Food and water were provided ad libitum.
(§2) Body mass and food consumption were monitored once a week for sixteen weeks. Prior to blood collection, animals were fasted for 4 hours to establish a physiological baseline. Blood was then collected from the retro-orbital plexus and processed using EDTA-K2-coated blood collection tubes (Milian Dutscher Group; Geneva, Switzerland). The resulting plasma was frozen and stored at −80° C. until used for analysis. A portion of each blood sample was used for blood glucose determination using an Abbott Freestyle Lite glucometer and glucose strips (Abbott Diabetes Care, Inc.; Alameda, Calif.). At the end of each study, animals were fasted and bled, as described above. The mice were then sacrificed, their overall body condition was assessed, and certain physiological parameters were measured. The inguinal and perigonadal fat pads, as well as liver of each mouse, were harvested by surgical resection, weighed, flash frozen, and stored at −80° C.
(§3) Enzyme-linked immunosorbent assay (ELISA) kits were obtained commercially and used to measure plasma levels of IGF-1 (R&D Systems; Minneapolis, Minn.), adiponectin (R&D Systems), FGF-21 (Millipore Corp.; Billerica, Mass.), leptin (R&D Systems), growth hormone (Millipore Corp.), and insulin (ALPCO Diagnostics; Salem, N.H.). Tests were performed according to the manufacturers' recommendations and measured using a Molecular Devices SpectraMax M5 Microplate Reader (Molecular Devices LLC; San Jose, Calif.). Two technical replicates were performed for each sample and the statistical significance of the resulting values determined by unpaired two-tailed t-tests using the software package Prism 8 (Graph-Pad Software; La Jolla, Calif.).
(In general: An ELISA detects its analyte on a solid surface through an enzyme-linked reagent.)

The next assay relates to IGF-1. Put plainly: Experiment 2: high-fat diet with first compounds, plasma IGF-1 ELISA. The settings on record: for Plasma IGF-1, Females / Plasma IGF-1, Males: high-fat diet 9 weeks, untreated = 100%, lysine 6.45%, OBS 4.3%, SPC 4.3% of food; for Plasma IGF-1, Males: male mice. The method, then: as §1, §2, §3
The next assay deals with insulin. Put plainly: Experiment 2: high-fat diet with first compounds, plasma insulin ELISA. The conditions noted are these: for Plasma Insulin, Females / Plasma Insulin, Males: high-fat diet 9 weeks, untreated = 100%, lysine 6.45%, OBS 4.3%, SPC 4.3% of food; for Plasma Insulin, Males: male mice. Here is the method:
as §1, §2, §3

In the next assay the test system is plasma glucose. In words: Experiment 2: high-fat diet with first compounds, plasma glucose. The conditions noted are these: for Plasma Glucose, Females / Plasma Glucose, Males: high-fat diet 9 weeks, untreated = 100%, lysine 6.45%, OBS 4.3%, SPC 4.3% of food; for Plasma Glucose, Males: male mice. The method, then: as §1, §2
Another assay has as its system adiponectin. In words: Experiment 2: high-fat diet with first compounds, plasma adiponectin ELISA. The settings on record: high-fat diet 9 weeks, untreated = 100%, lysine 6.45%, OBS 4.3%, SPC 4.3% of food; for Plasma Adiponectin, Females: female mice; for Plasma Adiponectin, Males: male mice. The method, then: as §1, §2, §3
The subject of a further assay is C57BL/6J mice. Put plainly: Experiment 2: high-fat diet with first compounds, body mass and inguinal/perigonadal fat pad mass. The settings on record: for Total Body Mass, Females / Inguinal Fat Mass, Females / Perigonadal Fat Mass, Females / Total Body Mass, Males / Inguinal Fat Mass, Males / Perigonadal Fat Mass, Males: high-fat diet 9 weeks, untreated = 100%, lysine 6.45%; for Total Body Mass, Females / Total Body Mass, Males: O-benzyl serine 4.3%, S-phenyl cysteine 4.3% of food; for Inguinal Fat Mass, Females / Perigonadal Fat Mass, Females / Inguinal Fat Mass, Males / Perigonadal Fat Mass, Males: OBS 4.3%, SPC 4.3% of food; for Total Body Mass, Males / Inguinal Fat Mass, Males / Perigonadal Fat Mass, Males: male mice; for Total Body Mass, Males: tryptophan dose not given. The method, then:
as §1
as §2, with “Prior” for “Body mass and food consumption were monitored once a week for sixteen weeks. Prior”

The test system of another assay is FGF-21. In words: Experiment 2: high-fat diet with first compounds, plasma FGF-21 ELISA. The settings on record: untreated = 100%; for Plasma FGF-21, Females: female mice, high-fat diet 9 weeks, lysine 6.45%, OBS 4.3%, SPC 4.3% of food. Here is the method: as §1, §2, §3
[1] abbreviates: female mice, 4.3% S-phenyl cysteine, high-fat diet, 9 week interval.
The mark [2] stands for this setting: female mice, 4.3% S-phenyl cysteine, high-fat diet, 9 week interval, p<0.001 vs untreated.

Results on four compounds are retold here after patent US20220105127A1, “METHODS FOR PROVIDING THE BENEFITS OF METHIONINE RESTRICTION WITHOUT DIETARY RESTRICTION” (priority 2020, published 2022).

`NCCCC[C@H](N)C(=O)O` [Lysine, lysine]: the “Plasma Leptin, Females” value in the assay on leptin (female mice) is given as 28%. In the assay with leptin, the “Plasma Leptin, Males” value stood at 13%. In addition, the “Plasma IGF-1, Females” value in the assay with IGF-1 (female mice) turned out to be 66%. Also, the “Plasma IGF-1, Males” value with IGF-1 was 68%. In addition, in the assay on insulin (female mice), the “Plasma Insulin, Females” value is on record as 41%. In the assay on insulin, the “Plasma Insulin, Males” value is on record as 22%. Moreover, the “Plasma Glucose, Females” value in the assay on plasma glucose (female mice) is listed as 73%. The “Plasma Glucose, Males” value in the assay with plasma glucose came to 84%. Also, in the assay on adiponectin, the “Plasma Adiponectin, Females” value was 125% and the “Plasma Adiponectin, Males” value came out at 92%. Further, in the assay with C57BL/6J mice (female mice), the “Total Body Mass, Females” value was 72%; the “Inguinal Fat Mass, Females” value was found to be 38%; the “Perigonadal Fat Mass, Females” value stood at 37%. In addition, in the assay on C57BL/6J mice, the “Total Body Mass, Males” value is listed as 91%; the “Inguinal Fat Mass, Males” value was 42%; the “Perigonadal Fat Mass, Males” value is on record as 34%. For the same compound, the “Plasma FGF-21, Females” value in the assay with FGF-21 is recorded as 144%.
As to `N[C@@H](COCc1ccccc1)C(=O)O` [O-Benzyl-Serine, O-benzyl serine], the “Plasma Leptin, Females” value in the assay on leptin (female mice) turned out to be 20%. Moreover, the “Plasma Leptin, Males” value in the assay on leptin came out at 12%. Further, the “Plasma IGF-1, Females” value in the assay on IGF-1 (female mice) was 79%. Besides, the “Plasma IGF-1, Males” value in the assay on IGF-1 was found to be 72%. Moreover, the “Plasma Insulin, Females” value in the assay on insulin (female mice) was determined as 37%. The “Plasma Insulin, Males” value with insulin was determined as 28%. Further, the “Plasma Glucose, Females” value in the assay with plasma glucose (female mice) stood at 71%. In addition, in the assay with plasma glucose, the “Plasma Glucose, Males” value is 93%. In the assay with adiponectin, the “Plasma Adiponectin, Females” value was 106% and the “Plasma Adiponectin, Males” value is listed as 108%. In the assay with C57BL/6J mice (female mice), the “Total Body Mass, Females” value is given as 69%; the “Inguinal Fat Mass, Females” value came to 27%; the “Perigonadal Fat Mass, Females” value is recorded as 25%. Also, in the assay on C57BL/6J mice, the “Total Body Mass, Males” value is reported as 89%; the “Inguinal Fat Mass, Males” value is on record as 42%; the “Perigonadal Fat Mass, Males” value was found to be 31%. Also, in the assay with FGF-21, the “Plasma FGF-21, Females” value was determined as 280%.
For the compound `N[C@@H](CSc1ccccc1)C(=O)O` [S-Phenyl-Cysteine, S-phenyl cysteine], the “plasma leptin level over time (FIG. 8B)” value with leptin (setting [1]) was “maintenance of low plasma leptin levels”. For the same compound, the “Plasma Leptin, Females” value in the assay with leptin (female mice) turned out to be 16%. For the same compound, the “Plasma Leptin, Males” value in the assay on leptin stood at 11%. Also, in the assay on IGF-1 (setting [1]), the “plasma IGF-1 level over time (FIG. 8A)” value is listed as “sustained reductions of plasma IGF-1 levels”. The “Plasma IGF-1, Females” value with IGF-1 (female mice) is on record as 72%. Further, the “Plasma IGF-1, Males” value in the assay with IGF-1 was found to be 66%. In addition, the “plasma insulin level over time (FIG. 7B)” value in the assay with insulin (setting [1]) is “maintenance of low insulin levels”. The “Plasma Insulin, Females” value in the assay on insulin (female mice) stood at 32%. The “Plasma Insulin, Males” value with insulin was 25%. Besides, the “plasma glucose level over time (FIG. 7A)” value in the assay with plasma glucose (female mice, 4.3% S-phenyl cysteine, high-fat diet, 9 week interval, more efficacious than methionine restriction) was “maintenance of low plasma glucose”. Moreover, in the assay on plasma glucose (female mice), the “Plasma Glucose, Females” value turned out to be 71%. Moreover, the “Plasma Glucose, Males” value in the assay with plasma glucose is given as 70%. Moreover, in the assay on adiponectin, the “Plasma Adiponectin, Females” value was 100% and the “Plasma Adiponectin, Males” value is recorded as 213%. Besides, in the assay on C57BL/6J mice (setting [2]), the “accumulation of inguinal and perigonadal adipose tissue (FIGS. 6A, 6B)” value is recorded as “robust protection against the accumulation of adipose tissue”; the “total weight gain (FIG. 5)” value was “robust prevention of total weight gain”. In the assay on C57BL/6J mice (female mice), the “Total Body Mass, Females” value is 71%; the “Inguinal Fat Mass, Females” value came out at 23%; the “Perigonadal Fat Mass, Females” value was 25%. In the assay with C57BL/6J mice, the “Total Body Mass, Males” value was determined as 87%; the “Inguinal Fat Mass, Males” value stood at 44%; the “Perigonadal Fat Mass, Males” value came to 35%. In the assay with FGF-21, the “Plasma FGF-21, Females” value is 181%.
In the case of `N[C@@H](Cc1c[nH]c2ccccc12)C(=O)O` [Tryptophan, tryptophan], the “Plasma Leptin, Males” value in the assay on leptin came out at 18%. Moreover, in the assay with IGF-1, the “Plasma IGF-1, Males” value amounted to 73%. Besides, the “Plasma Insulin, Males” value with insulin worked out at 56%. The “Plasma Glucose, Males” value with plasma glucose stood at 94%. The “Plasma Adiponectin, Males” value in the assay on adiponectin stood at 118%. In the assay with C57BL/6J mice, the “Total Body Mass, Males” value was 85%; the “Inguinal Fat Mass, Males” value is recorded as 50%; the “Perigonadal Fat Mass, Males” value is reported as 39%. In the assay with FGF-21 (male mice, high-fat diet, tryptophan dose not given), the “Plasma FGF-21, Males” value is given as 502%.
